Laboratory results: paper PMC11845477, “Exploring the principles behind antibiotics with limited resistance” (Nature Communications, 2025)

Tests used:
[1] = test system: K. pneumoniae ATCC 10031 (SEN) and K. pneumoniae ATCC 700603 (MDR); assay: Adaptive laboratory evolution (ALE), relative MIC of evolved lines; assay type: cell-based, Klebsiella pneumoniae; details: for MIC of evolved line: KP-SEN (K. pneumoniae ATCC 10031)
From the text: (§1) Using the same set of bacterial strains, we initiated adaptive laboratory evolution with the aim to maximize the level of antibiotic resistance in the populations achieved during a longer, but fixed time period.
(§2) An established protocol for adaptive laboratory evolution[46],[73] was followed to propagate populations with the highest resistance levels. Starting with an antibiotic concentration that caused approximately 50% growth inhibition, ten parallel populations for each antibiotic-ancestor strain combination were grown for 72 hours at 37 °C with continuous shaking (300 RPM). MHB broth medium was used unless stated otherwise. After each incubation, 20 µl of each culture was transferred to four new wells containing fresh medium with increasing antibiotic concentrations (0.5×, 1×, 1.5×, and 2.5× the previous concentration) in a chessboard layout to monitor potential cross-contamination. Growth was monitored by measuring OD600 using a Biotek Synergy 2 microplate reader, and only populations grown in the highest drug concentration with an OD600 > 0.2 were transferred further.
(§3) A robotic liquid handling system was used to automatically prepare a 11 to 16-step serial dilution in 384-well microtiter plates (Greiner). A final concentration of 5 × 10^5 bacterial cells per mL were inoculated into each well containing 60 µL MHB medium. Bacterial cultures were incubated at 37 °C with continuous shaking (Infors shaker, 900 rpm with 3 mm throw) for 18 hours (2 replicates from each). Cell growth was monitored by measuring the optical density (OD600 values, using Biotek Synergy microplate reader). MIC was defined as the antibiotic concentration of complete growth inhibition (i.e., OD600 < 0.05). Relative MIC was calculated as follows:1 relativeMIC=MICevolved/MICancestor […]
(§4) Supplementary Figure 4. Resistance levels following adaptive laboratory evolution across bacterial strains. The level of resistance was measured as the fold change in relative MIC between evolved and ancestral strains after ~60 days of adaptive laboratory evolution. Data are grouped by bacterial strain (A. baumannii (AB), E. coli (EC), K. pneumoniae (KP), and P. aeruginosa (PA)) and categorized as either multidrug-resistant (MDR) or sensitive (SEN). Each data point represents a laboratory evolved line, and boxplots show the median, first and third quartiles, with whiskers indicating the 5th and 95th percentiles.
(§5) Statistical analysis was performed using two-sided Dunn’s post-hoc test with Benjamini-Hochberg correction for multiple comparisons (****/ ***/ **/ * indicates p < 0.0001/ 0.001/ 0.01/ 0.05). For detailed information on antibiotic and bacterial species, see Supplementary Table 1. For mode of action groups, refer to Table 1. Source data are provided as a Source Data file.

[2] = test system: A. baumannii ATCC 17978 (SEN) and A. baumannii ATCC BAA-1605 (MDR); assay: as above; assay type: cell-based, Acinetobacter baumannii; details: for Relative MIC (log10): AB-SEN (Acinetobacter baumannii ATCC 17978)
From the text: as §1, §2, §3, §4, §5

[3] = KP-SEN (Klebsiella pneumoniae ATCC 10031), evolved line 6
[4] = KP-SEN (Klebsiella pneumoniae ATCC 10031), evolved line 8
[5] = KP-SEN (Klebsiella pneumoniae ATCC 10031), evolved line 10
[6] = Klebsiella pneumoniae ATCC 10031 (KP-SEN), evolved line 1
[7] = Klebsiella pneumoniae ATCC 10031 (KP-SEN), evolved line 2
[8] = Klebsiella pneumoniae ATCC 10031 (KP-SEN), evolved line 4

In the case of `CNC(C)C1CCC(N)C(OC2C(N)CC(N)C(OC3OCC(C)(O)C(NC)C3O)C2O)O1` (stereo not drawn) [Gentamicin], the “Relative MIC (log10)” value ([1]; KP-SEN (Klebsiella pneumoniae ATCC 10031), evolved line 2 adapted to the named antibiotic) is reported as 2.107, the “Relative MIC (log10)” value ([1]; KP-SEN (Klebsiella pneumoniae ATCC 10031), evolved line 4 adapted to the named antibiotic) is reported as 1.806 and the “Relative MIC (log10)” value ([1]; KP-SEN (Klebsiella pneumoniae ATCC 10031), evolved line 5 adapted to the named antibiotic) is reported as 1.806. For the same compound, the “Relative MIC” value [1, 3] was 64, the “Relative MIC (log10)” value ([1]; KP-SEN (Klebsiella pneumoniae ATCC 10031), evolved line 6 adapted to the named antibiotic) was 1.806 and the “Relative MIC” value [1, 4] was 128. The “Relative MIC (log10)” value ([1]; KP-SEN (Klebsiella pneumoniae ATCC 10031), evolved line 8 adapted to the named antibiotic) was 2.107, the “Relative MIC” value ([1]; KP-SEN (Klebsiella pneumoniae ATCC 10031), evolved line 9) was 128 and the “Relative MIC” value [1, 5] was 128. For the same compound, the “Relative MIC” value ([1]; KP-SEN, Klebsiella pneumoniae ATCC 10031, evolved line 1 versus ancestor) was 64, the “Relative MIC” value ([1]; KP-SEN, Klebsiella pneumoniae ATCC 10031, evolved line 2 versus ancestor) was 128 and the “Relative MIC” value ([1]; KP-SEN, Klebsiella pneumoniae ATCC 10031, evolved line 4 versus ancestor) was 64. For the same compound, the “Relative MIC” value ([1]; KP-SEN, Klebsiella pneumoniae ATCC 10031, evolved line 5 versus ancestor) was 64, the “Relative MIC” value ([1]; KP-SEN, Klebsiella pneumoniae ATCC 10031, evolved line 6 versus ancestor) was 64 and the “Relative MIC” value ([1]; KP-SEN, Klebsiella pneumoniae ATCC 10031, evolved line 7 versus ancestor) was 64. The “Relative MIC” value ([1]; KP-SEN, Klebsiella pneumoniae ATCC 10031, evolved line 8 versus ancestor) was 128, the “Relative MIC” value ([1]; KP-SEN, Klebsiella pneumoniae ATCC 10031, evolved line 9 versus ancestor) was 128 and the “Relative MIC” value ([1]; KP-SEN, Klebsiella pneumoniae ATCC 10031, evolved line 10 versus ancestor) was 128. For the same compound, the “Relative MIC” value ([1]; KP-SEN, Klebsiella pneumoniae ATCC 10031, evolved line 5) was 64, the “Relative MIC” value ([1]; KP-SEN, Klebsiella pneumoniae ATCC 10031, evolved line 7) was 64 and the “Relative MIC” value [1, 6] was 64. The “Relative MIC” value [1, 7] was 128, the “Relative MIC” value [1, 8] was 64 and the “Relative MIC (log10)” value ([2]; evolved line 2 adapted to the named antibiotic) was 2.709. The “Relative MIC (log10)” value ([2]; evolved line 4 adapted to the named antibiotic) was 2.709, the “Relative MIC (log10)” value ([2]; evolved line 5 adapted to the named antibiotic) was 2.709 and the “Relative MIC (log10)” value ([2]; evolved line 7 adapted to the named antibiotic) was 2.709. For the same compound, the “Relative MIC (log10)” value ([2]; evolved line 10 adapted to the named antibiotic) was 2.709, the “Relative MIC” value ([2]; AB-SEN, Acinetobacter baumannii ATCC 17978, evolved line 2 versus ancestor) was 512 and the “Relative MIC” value ([2]; AB-SEN, Acinetobacter baumannii ATCC 17978, evolved line 3 versus ancestor) was 256. For the same compound, the “Relative MIC” value ([2]; AB-SEN, Acinetobacter baumannii ATCC 17978, evolved line 4 versus ancestor) was 512, the “Relative MIC” value ([2]; AB-SEN, Acinetobacter baumannii ATCC 17978, evolved line 5 versus ancestor) was 512 and the “Relative MIC” value ([2]; AB-SEN, Acinetobacter baumannii ATCC 17978, evolved line 6 versus ancestor) was 256. For the same compound, the “Relative MIC” value ([2]; AB-SEN, Acinetobacter baumannii ATCC 17978, evolved line 7 versus ancestor) was 512, the “Relative MIC” value ([2]; AB-SEN, Acinetobacter baumannii ATCC 17978, evolved line 8 versus ancestor) was 128 and the “Relative MIC” value ([2]; AB-SEN, Acinetobacter baumannii ATCC 17978, evolved line 9 versus ancestor) was 128. The “Relative MIC” value ([2]; AB-SEN, Acinetobacter baumannii ATCC 17978, evolved line 10 versus ancestor) was 512, the “Relative MIC” value ([2]; Acinetobacter baumannii ATCC 17978 (AB-SEN), evolved line 2) was 512 and the “Relative MIC” value ([2]; Acinetobacter baumannii ATCC 17978 (AB-SEN), evolved line 3) was 256. For the same compound, the “Relative MIC” value ([2]; Acinetobacter baumannii ATCC 17978 (AB-SEN), evolved line 4) was 512, the “Relative MIC” value ([2]; Acinetobacter baumannii ATCC 17978 (AB-SEN), evolved line 5) was 512 and the “Relative MIC” value ([2]; Acinetobacter baumannii ATCC 17978 (AB-SEN), evolved line 6) was 256. The “Relative MIC” value ([2]; Acinetobacter baumannii ATCC 17978 (AB-SEN), evolved line 7) was 512, the “Relative MIC” value ([2]; Acinetobacter baumannii ATCC 17978 (AB-SEN), evolved line 8) was 128 and the “Relative MIC” value ([2]; Acinetobacter baumannii ATCC 17978 (AB-SEN), evolved line 9) was 128. The “Relative MIC” value ([2]; Acinetobacter baumannii ATCC 17978 (AB-SEN), evolved line 10) was 512.

In the case of `C[C@@H]1CN2c3c(cc4c(N5C(=O)OC[C@@H]5C)noc4c3F)CC3(C(=O)NC(=O)NC3=O)[C@H]2[C@H](C)O1` [Zoliflodacin], the “Relative MIC” value ([1]; KP-SEN (ATCC 10031), evolved line 1, evolved vs ancestor) is reported as 1024, the “Relative MIC” value ([1]; KP-SEN (ATCC 10031), evolved line 2, evolved vs ancestor) is reported as 1024 and the “Relative MIC” value ([1]; KP-SEN (ATCC 10031), evolved line 3, evolved vs ancestor) is reported as 512. For the same compound, the “Relative MIC” value ([1]; KP-SEN (ATCC 10031), evolved line 4, evolved vs ancestor) was 1024, the “Relative MIC” value ([1]; KP-SEN (ATCC 10031), evolved line 5, evolved vs ancestor) was 1024 and the “Relative MIC” value ([1]; KP-SEN (ATCC 10031), evolved line 6, evolved vs ancestor) was 1024. For the same compound, the “Relative MIC” value ([1]; KP-SEN (ATCC 10031), evolved line 7, evolved vs ancestor) was 1024, the “Relative MIC” value ([1]; KP-SEN (ATCC 10031), evolved line 8, evolved vs ancestor) was 1024 and the “Relative MIC” value ([1]; KP-SEN (ATCC 10031), evolved line 10, evolved vs ancestor) was 1024. The “Relative MIC (log10)” value ([1]; KP-SEN (Klebsiella pneumoniae ATCC 10031), evolved line 2) was 3.0103 log10, the “Relative MIC (log10)” value ([1]; KP-SEN (Klebsiella pneumoniae ATCC 10031), evolved line 4) was 3.0103 log10 and the “Relative MIC (log10)” value [1, 3] was 3.0103 log10. The “Relative MIC (log10)” value [1, 4] was 3.0103 log10, the “Relative MIC (log10)” value [1, 5] was 3.0103 log10 and the “Relative MIC” value [1, 6] was 1024. The “Relative MIC” value [1, 7] was 1024, the “Relative MIC” value ([1]; Klebsiella pneumoniae ATCC 10031 (KP-SEN), evolved line 3) was 512 and the “Relative MIC” value [1, 8] was 1024. The “Relative MIC” value ([1]; Klebsiella pneumoniae ATCC 10031 (KP-SEN), evolved line 5) was 1024, the “Relative MIC” value ([1]; Klebsiella pneumoniae ATCC 10031 (KP-SEN), evolved line 6) was 1024 and the “Relative MIC” value ([1]; Klebsiella pneumoniae ATCC 10031 (KP-SEN), evolved line 7) was 1024. For the same compound, the “Relative MIC” value ([1]; Klebsiella pneumoniae ATCC 10031 (KP-SEN), evolved line 8) was 1024 and the “Relative MIC” value ([1]; Klebsiella pneumoniae ATCC 10031 (KP-SEN), evolved line 10) was 1024.

Tridecaptin M152-P3 was tested, and the MIC of evolved line ([1]; evolved line 2 of the given antibiotic) was 32 µg/mL, the MIC of evolved line ([1]; evolved line 4 of the given antibiotic) was 8 µg/mL and the MIC of evolved line ([1]; evolved line 5 of the given antibiotic) was 64 µg/mL. The MIC of evolved line ([1]; evolved line 6 of the given antibiotic) was 64 µg/mL, the MIC of evolved line ([1]; evolved line 7 of the given antibiotic) was 64 µg/mL and the MIC of evolved line ([1]; evolved line 8 of the given antibiotic) was 4 µg/mL.
